The supplement of paper PMC5908809

What was measured:
Test in all cases: relative IC50 (inflection point of fitted viability curve, relative to fitted max inhibition); higher = less sensitive
Conditions in all cases: 72 h
KHYG-1 (IL-2 2.5 ng/mL) = test system: KHYG-1 (IL-2 2.5 ng/mL)
Description: (§1)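 Drug sensitivity and resistance testing: 5 concentrations over a 10,000-fold range, 72 h at 37 °C, viability by CellTiter-Glo normalised to DMSO and benzethonium chloride controls. IC50 is the inflection point of a logistic fit (min fixed at 0, max fitted), so it is relative to the fitted maximal inhibition. Kept only where fitted max inhibition is at least 50%.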

NK-92 (IL-2 2.5 ng/mL) = test system: NK-92 (IL-2 2.5 ng/mL)
Description: as §1

NKL (IL-2 2.5 ng/mL) = test system: NKL (IL-2 2.5 ng/mL)
Description: as §1

SNK-6 (IL-2 2.5 ng/mL) = test system: SNK-6 (IL-2 2.5 ng/mL)
Description: as §1

DERL-7 (IL-2 2.5 ng/mL) = test system: DERL-7 (IL-2 2.5 ng/mL)
Description: as §1

Compound	relative IC50 (KHYG-1 (IL-2 2.5 ng/mL)) [nM]	relative IC50 (NK-92 (IL-2 2.5 ng/mL)) [nM]	relative IC50 (NKL (IL-2 2.5 ng/mL)) [nM]	relative IC50 (SNK-6 (IL-2 2.5 ng/mL)) [µM]	relative IC50 (DERL-7 (IL-2 2.5 ng/mL)) [nM]
Cc1cc(C(=O)NOCCO)c(Nc2ccc(I)cc2F)n(C)c1=O [AZD-8330]	13	> 10000	10.2	> 10	–
O=C(c1ccc(F)c(F)c1Nc1ccc(I)cc1F)N1CC(O)([C@@H]2CCCCN2)C1 [Cobimetinib]	123	–	51.6	> 1	–
O=S(=O)(c1cccc2c(O)nccc12)N1CCCNCC1 [Hydroxyfasudil]	–	–	–	9.46	–
C#Cc1cccc(Nc2ncnc3cc4c(cc23)OCCOCCOCCO4)c1 [Icotinib]	–	1970	–	–	–
CS(=O)(=O)CCNCc1ccc(-c2ccc3ncnc(Nc4ccc(OCc5cccc(F)c5)c(Cl)c4)c3c2)o1 [Lapatinib]	–	–	–	> 1	–
CCN1CCN(Cc2ccc(-c3cc4c(N[C@H](C)c5ccccc5)ncnc4[nH]3)cc2)CC1 [NVP-AEE788]	–	374	–	–	–
CCN1CCN(c2ccc(Nc3cc(N(C)C(=O)Nc4c(Cl)c(OC)cc(OC)c4Cl)ncn3)cc2)CC1 [NVP-BGJ398]	–	–	–	> 1	–
COc1cc(F)c(F)c(Nc2ccc(I)cc2F)c1NS(=O)(=O)C1(C[C@H](O)CO)CC1 [Refametinib]	147	–	91.9	–	194
Cn1cnc2c(F)c(Nc3ccc(Br)cc3Cl)c(C(=O)NOCCO)cc21 [Selumetinib]	606	–	436	> 10	136
Cn1c(=O)c(F)c(Nc2ccc(I)cc2F)c2c(=O)n(C[C@@H](O)CO)cnc21 [TAK-733]	22.5	–	12.6	–	–
